Measurements: ChEMBL document CHEMBL1136401 (Bioorg Med Chem Lett, 2003)

Key:
MT4 [1] = assay: Inhibition of the spread of HIV infection (K-60C) in MT-4 human T-lymphoid cells; assay type: functional; settings: read-out: CIC95
MT4 [2] = assay: Inhibition of the spread of HIV infection (V-18C) in MT-4 human T-lymphoid cells; assay type: functional; settings: read-out: CIC95
MT4 [3] = assay: Inhibition of the spread of HIV infection wild type(WT) in MT-4 human T-lymphoid cells; assay type: functional; settings: read-out: CIC95
[4] = molecular target: T1, Human immunodeficiency virus type 1 protease (Human immunodeficiency virus 1, UniProt Q72874); assay: Inhibition of HIV protease of HIV K-60C mutant strain
[5] = molecular target: T1, Human immunodeficiency virus type 1 protease; assay: Inhibition of wild type HIV protease
[6] = molecular target: T1, Human immunodeficiency virus type 1 protease; assay: Inhibition of HIV protease of HIV V-18C mutant strain

Compound | IC95 (MT4 [1]) [nM] | IC95 (MT4 [2]) [nM] | IC95 (MT4 [3]) [nM] | IC50 [4] [nM] | IC50 [5] [nM] | IC50 [6] [nM]
Cc1noc(C)c1CNC(=O)[C@H]1N(C(=O)[C@@H](O)C[C@@H](Cc2ccccc2)C(=O)N[C@H]2c3ccccc3OC[C@H]2O)CSC1(C)C | 250 | 62 | 156 |  |  | 
Cc1cccc(C)c1CNC(=O)[C@H]1N(C(=O)[C@@H](O)C[C@@H](Cc2ccccc2)C(=O)N[C@H]2c3ccccc3C[C@H]2O)CSC1(C)C | 125 | 31 | 31 | 0.062 | 0.04 | 0.062
Cc1cccc(C)c1CNC(=O)[C@H]1N(C(=O)[C@@H](O)C[C@@H](Cc2ccccc2)C(=O)N[C@H]2c3ccccc3OC[C@H]2O)CSC1(C)C | 500 | 62 | 47 |  |  | 
Cc1ccnc(C)c1CNC(=O)[C@H]1N(C(=O)[C@@H](O)C[C@@H](Cc2ccccc2)C(=O)N[C@H]2c3ccccc3OC[C@H]2O)CSC1(C)C | 250 | 125 | 187 |  |  | 
Cc1nsc(C)c1CNC(=O)[C@H]1N(C(=O)[C@@H](O)C[C@@H](Cc2ccccc2)C(=O)N[C@H]2c3ccccc3OC[C@H]2O)CSC1(C)C | 250 | 31 | 16 |  |  | 
CC1(C)SCN(C(=O)[C@@H](O)C[C@@H](Cc2ccccc2)C(=O)N[C@H]2c3ccccc3OC[C@H]2O)[C@@H]1C(=O)NCc1c(Cl)cccc1Cl | 250 | 16 | < 8 |  |  | 
Cc1ccccc1CNC(=O)[C@H]1N(C(=O)[C@@H](O)C[C@@H](Cc2ccccc2)C(=O)N[C@H]2c3ccccc3OC[C@H]2O)CSC1(C)C | 125 | 41 | 19 |  |  | 
Cc1cccc(Cl)c1CNC(=O)[C@H]1N(C(=O)[C@@H](O)C[C@@H](Cc2ccccc2)C(=O)N[C@H]2c3ccccc3OC[C@H]2O)CSC1(C)C | 46 | 23 | 31 |  |  | 
CC1(C)SCN(C(=O)[C@@H](O)C[C@@H](Cc2ccccc2)C(=O)N[C@H]2c3ccccc3OC[C@H]2O)[C@@H]1C(=O)NCc1c(F)cccc1F | 250 | 62 | 23 |  |  | 
Cc1cccc(C)c1CNC(=O)[C@H]1N(C(=O)[C@H](O)C[C@@H](Cc2ccccc2)C(=O)N[C@H]2c3ccccc3OC[C@H]2O)CSC1(C)C | 70 | 15 | 15 |  |  | 
Cc1ccccc1CNC(=O)[C@H]1N(C[C@@H](O)C[C@@H](Cc2ccccc2)C(=O)N[C@H]2c3ccccc3OC[C@H]2O)CSC1(C)C | > 1000 | 1000 | 250 | 7.9 | 0.52 | 8.8
CC(C)(C)NC(=O)[C@@H]1CN(Cc2cccnc2)CCN1C[C@@H](O)C[C@@H](Cc1ccccc1)C(=O)N[C@H]1c2ccccc2C[C@H]1O | 1000 | 890 | 45 |  |  | 
